The source of these data is ChEMBL document CHEMBL5537122, “Design, synthesis, and biological evaluation of 4-(2-fluorophenoxy)-7-methoxyquinazoline derivatives as dual EGFR/c-Met inhibitors for the treatment of NSCLC” (Eur J Med Chem, 2024).

The species named for one series is Homo sapiens. Kind of series: Inhibition of EGFR T790/C797S mutant (unknown origin) at 10 uM relative to control.
The test system of series [1] is A549. Briefly: Induction in apoptosis in human A549 cells overexpressing c-MET assessed as viable cells at 1 uM incubated for 24 hrs by Annexin V-FITC/Propidium Iodide staining based flow cytometry analysis (reference value: 81.92 %). In kind it is functional. The settings on record: read-out: Activity. A general note: Flow cytometry measures light scatter and fluorescence of single cells or particles in a stream.

The subject of series [2] is A549. Briefly: Induction in apoptosis in human A549 cells overexpressing c-MET assessed as early apoptotic cells at 1 uM incubated for 24 hrs by Annexin V-FITC/Propidium Iodide staining based flow cytometry analysis (reference value: 7.27 %). In kind it is functional.
The test system of series [3] is A549. Briefly: Induction in apoptosis in human A549 cells overexpressing c-MET assessed as late apoptotic cells at 1 uM incubated for 24 hrs by Annexin V-FITC/Propidium Iodide staining based flow cytometry analysis (reference value: 7.59 %). In kind it is functional.
Series [4] deals with A549. Kind of series: Induction in apoptosis in human A549 cells overexpressing c-MET assessed as necrotic cells at 1 uM incubated for 24 hrs by Annexin V-FITC/Propidium Iodide staining based flow cytometry analysis (reference value: 3.22 %). In kind it is functional.
In series [5] the test system is NCI-H1975. Kind of series: Induction in apoptosis in human NCI-H1975 cells assessed as viable cells at 1 uM incubated for 24 hrs by Annexin V-FITC/Propidium Iodide staining based flow cytometry analysis (reference value: 91.58 %). The settings on record: read-out: Activity. In kind it is functional.
Series [6] relates to NCI-H1975. Kind of series: Induction in apoptosis in human NCI-H1975 cells assessed as early apoptotic cells at 1 uM incubated for 24 hrs by Annexin V-FITC/Propidium Iodide staining based flow cytometry analysis (reference value: 2.54 %). In kind it is functional.
Series [7] concerns NCI-H1975. Kind of series: Induction in apoptosis in human NCI-H1975 cells assessed as late apoptotic cells at 1 uM incubated for 24 hrs by Annexin V-FITC/Propidium Iodide staining based flow cytometry analysis (reference value: 4.46 %). In kind it is functional.
Series [8] concerns NCI-H1975. Kind of series: Induction in apoptosis in human NCI-H1975 cells assessed as necrotic cells at 1 uM incubated for 24 hrs by Annexin V-FITC/Propidium Iodide staining based flow cytometry analysis (reference value: 1.42 %). In kind it is functional.
Series [9] can be described thus: Induction in apoptosis in human L02 cells assessed as viable cells at 1 uM incubated for 24 hrs by Annexin V-FITC/Propidium Iodide staining based flow cytometry analysis (reference value: 92.75 %). In kind it is toxicity, cell-based. The settings on record: read-out: Activity.
Series [10] has as its system L02. Briefly: Induction in apoptosis in human L02 cells assessed as early apoptotic cells at 1 uM incubated for 24 hrs by Annexin V-FITC/Propidium Iodide staining based flow cytometry analysis (reference value: 0.26 %). In kind it is toxicity, cell-based. The settings on record: l02, 24 h.
The subject of series [11] is L02. Briefly: Induction in apoptosis in human L02 cells assessed as late apoptotic cells at 1 uM incubated for 24 hrs by Annexin V-FITC/Propidium Iodide staining based flow cytometry analysis (reference value: 0.36 %). The settings on record: l02, 24 h. In kind it is toxicity, cell-based.
The test system of series [12] is L02. Briefly: Induction in apoptosis in human L02 cells assessed as necrotic cells at 1 uM incubated for 24 hrs by Annexin V-FITC/Propidium Iodide staining based flow cytometry analysis (reference value: 6.63 %). In kind it is toxicity, cell-based. The settings on record: l02, 24 h.
Series [13] deals with A549. Briefly: Induction of cell cycle arrest in human A549 cells overexpressing c-MET assessed as accumulation of cells at G1/G0 phase at 1 uM incubated for 24 hrs by RNase A/propidium iodide staining based flow cytometric analysis (reference value: 49.24 %). In kind it is functional.
For series [14], the system named is A549. Briefly: Induction of cell cycle arrest in human A549 cells overexpressing c-MET assessed as accumulation of cells at S phase at 1 uM incubated for 24 hrs by RNase A/propidium iodide staining based flow cytometric analysis (reference value: 37.87 %). In kind it is functional.
Series [15] is described as follows: Hemolytic activity in sheep erythrocytes at 64 ug/ml incubated for 2 hr by UV spectrophotometer relative to control. In kind it is toxicity, cell-based, Ovis aries, Erythrocyte. The conditions noted are these: at 64 µg/mL, read-out: Activity.
Series [16] has as its system A549. Briefly: Antiproliferative activity against human A549 cells overexpressing c-Met and EGFR assessed as reduction in cell viability incubated for 72 hrs by MTT assay. In kind it is functional, cell-based. The conditions noted are these: A549, 72 h.
For series [17], the system named is NCI-H1975. Briefly: Antiproliferative activity against human NCI-H1975 cells overexpressing c-Met and EGFR assessed as reduction in cell viability incubated for 72 hrs by MTT assay. In kind it is functional, cell-based. The conditions noted are these: NCI-H1975, 72 h. (In general: Tetrazolium dyes change colour on reduction, which living cells bring about.)
In a further series the test system is PC-9. Briefly: Antiproliferative activity against human PC-9 cells overexpressing c-Met and EGFR assessed as reduction in cell viability incubated for 72 hrs by MTT assay. In kind it is functional, cell-based. The settings on record: PC-9, 72 h.
In series [18] the target is Epidermal growth factor receptor (Homo sapiens, UniProt P00533). Kind of series: biochemical.
Description: Inhibition of N-terminal GST tagged human recombinant EGFR (695 to end residues) expressed in baculovirus infected Sf9 cells using Poly (4:1 Glu, Tyr) as substrate incubated for 60 mins in presence of ATP by ADP-Glo luminescent assay
The target of series [19] is Epidermal growth factor receptor (Homo sapiens, UniProt P00533, L858R). Kind of series: biochemical.
Series [20] deals with Hepatocyte growth factor receptor (Homo sapiens, UniProt P08581). Briefly: biochemical.
Hepatocyte growth factor receptor, sequence (P08581 whole entry): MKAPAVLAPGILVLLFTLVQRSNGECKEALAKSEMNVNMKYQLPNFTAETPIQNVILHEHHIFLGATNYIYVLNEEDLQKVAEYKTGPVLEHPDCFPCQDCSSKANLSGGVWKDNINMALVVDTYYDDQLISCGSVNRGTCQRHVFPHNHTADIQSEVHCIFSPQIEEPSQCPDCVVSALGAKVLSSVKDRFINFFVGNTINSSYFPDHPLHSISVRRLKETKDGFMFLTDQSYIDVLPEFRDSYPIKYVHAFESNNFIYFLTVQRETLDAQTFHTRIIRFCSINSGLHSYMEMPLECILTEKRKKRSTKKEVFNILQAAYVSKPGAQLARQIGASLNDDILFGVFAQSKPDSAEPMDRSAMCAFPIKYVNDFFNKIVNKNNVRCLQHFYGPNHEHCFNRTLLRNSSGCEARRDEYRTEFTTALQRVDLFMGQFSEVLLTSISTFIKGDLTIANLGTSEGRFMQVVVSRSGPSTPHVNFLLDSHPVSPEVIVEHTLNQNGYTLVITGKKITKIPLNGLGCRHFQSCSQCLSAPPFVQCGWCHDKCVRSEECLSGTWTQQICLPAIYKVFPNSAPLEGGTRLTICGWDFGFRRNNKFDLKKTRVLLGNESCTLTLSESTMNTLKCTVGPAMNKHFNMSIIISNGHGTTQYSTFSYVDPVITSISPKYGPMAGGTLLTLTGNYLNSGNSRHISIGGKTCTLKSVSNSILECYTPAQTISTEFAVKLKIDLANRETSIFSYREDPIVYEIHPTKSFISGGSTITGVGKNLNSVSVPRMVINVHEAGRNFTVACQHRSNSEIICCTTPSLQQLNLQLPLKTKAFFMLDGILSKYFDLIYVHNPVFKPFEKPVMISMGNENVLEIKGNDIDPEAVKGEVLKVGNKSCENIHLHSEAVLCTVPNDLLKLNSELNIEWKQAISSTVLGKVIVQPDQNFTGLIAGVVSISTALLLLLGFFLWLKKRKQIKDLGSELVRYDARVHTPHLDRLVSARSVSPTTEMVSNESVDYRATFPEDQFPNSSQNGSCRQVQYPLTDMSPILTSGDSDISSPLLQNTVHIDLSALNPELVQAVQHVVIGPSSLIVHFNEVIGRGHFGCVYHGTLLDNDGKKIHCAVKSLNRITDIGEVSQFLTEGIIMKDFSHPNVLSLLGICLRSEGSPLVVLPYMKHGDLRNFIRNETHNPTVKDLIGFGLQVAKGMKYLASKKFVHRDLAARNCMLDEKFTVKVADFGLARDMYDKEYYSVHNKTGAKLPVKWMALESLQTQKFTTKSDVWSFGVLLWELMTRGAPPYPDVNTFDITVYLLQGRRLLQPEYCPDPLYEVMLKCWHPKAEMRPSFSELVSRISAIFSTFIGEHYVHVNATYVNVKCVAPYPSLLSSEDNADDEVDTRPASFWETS
Description: Inhibition of N-terminal GST tagged human recombinant c-Met (956 to end residues) expressed in baculovirus infected Sf9 cells using Poly (4:1 Glu, Tyr) as substrate incubated for 60 mins in presence of ATP by ADP-Glo luminescent assay

Epidermal growth factor receptor (Homo sapiens, UniProt P00533, L858R), sequence (P00533 25-1210 L858R limits assumed): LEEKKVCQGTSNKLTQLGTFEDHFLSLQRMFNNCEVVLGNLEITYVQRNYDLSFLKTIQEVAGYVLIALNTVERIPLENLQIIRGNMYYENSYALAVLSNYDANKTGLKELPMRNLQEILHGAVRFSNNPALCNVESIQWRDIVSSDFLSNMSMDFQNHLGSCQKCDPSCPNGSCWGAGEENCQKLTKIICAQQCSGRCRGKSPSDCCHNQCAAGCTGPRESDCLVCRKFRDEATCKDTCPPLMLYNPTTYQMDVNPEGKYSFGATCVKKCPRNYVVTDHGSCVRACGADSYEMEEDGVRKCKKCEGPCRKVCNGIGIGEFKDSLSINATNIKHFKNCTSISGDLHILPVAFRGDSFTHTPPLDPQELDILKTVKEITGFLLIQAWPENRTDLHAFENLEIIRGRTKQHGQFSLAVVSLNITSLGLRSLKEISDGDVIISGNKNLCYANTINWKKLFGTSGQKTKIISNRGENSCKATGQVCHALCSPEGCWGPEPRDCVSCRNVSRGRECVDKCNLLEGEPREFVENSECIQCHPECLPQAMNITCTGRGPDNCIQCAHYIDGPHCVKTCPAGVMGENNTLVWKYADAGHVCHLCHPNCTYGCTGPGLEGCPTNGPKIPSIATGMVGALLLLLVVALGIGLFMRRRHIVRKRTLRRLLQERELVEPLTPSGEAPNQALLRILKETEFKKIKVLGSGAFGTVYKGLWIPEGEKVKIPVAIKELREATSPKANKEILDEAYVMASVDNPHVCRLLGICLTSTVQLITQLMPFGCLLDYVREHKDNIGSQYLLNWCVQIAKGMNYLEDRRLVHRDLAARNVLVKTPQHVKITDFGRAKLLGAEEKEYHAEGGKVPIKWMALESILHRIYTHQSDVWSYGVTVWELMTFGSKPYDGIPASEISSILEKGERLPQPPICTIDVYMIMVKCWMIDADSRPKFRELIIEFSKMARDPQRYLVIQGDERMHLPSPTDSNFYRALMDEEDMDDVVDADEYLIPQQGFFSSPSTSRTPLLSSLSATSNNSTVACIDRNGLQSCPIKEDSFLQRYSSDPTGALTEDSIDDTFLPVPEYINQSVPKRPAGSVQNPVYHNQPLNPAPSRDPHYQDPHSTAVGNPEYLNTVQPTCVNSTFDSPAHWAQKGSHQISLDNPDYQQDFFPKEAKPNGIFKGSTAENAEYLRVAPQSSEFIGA
Epidermal growth factor receptor (Homo sapiens, UniProt P00533), sequence (P00533 whole entry): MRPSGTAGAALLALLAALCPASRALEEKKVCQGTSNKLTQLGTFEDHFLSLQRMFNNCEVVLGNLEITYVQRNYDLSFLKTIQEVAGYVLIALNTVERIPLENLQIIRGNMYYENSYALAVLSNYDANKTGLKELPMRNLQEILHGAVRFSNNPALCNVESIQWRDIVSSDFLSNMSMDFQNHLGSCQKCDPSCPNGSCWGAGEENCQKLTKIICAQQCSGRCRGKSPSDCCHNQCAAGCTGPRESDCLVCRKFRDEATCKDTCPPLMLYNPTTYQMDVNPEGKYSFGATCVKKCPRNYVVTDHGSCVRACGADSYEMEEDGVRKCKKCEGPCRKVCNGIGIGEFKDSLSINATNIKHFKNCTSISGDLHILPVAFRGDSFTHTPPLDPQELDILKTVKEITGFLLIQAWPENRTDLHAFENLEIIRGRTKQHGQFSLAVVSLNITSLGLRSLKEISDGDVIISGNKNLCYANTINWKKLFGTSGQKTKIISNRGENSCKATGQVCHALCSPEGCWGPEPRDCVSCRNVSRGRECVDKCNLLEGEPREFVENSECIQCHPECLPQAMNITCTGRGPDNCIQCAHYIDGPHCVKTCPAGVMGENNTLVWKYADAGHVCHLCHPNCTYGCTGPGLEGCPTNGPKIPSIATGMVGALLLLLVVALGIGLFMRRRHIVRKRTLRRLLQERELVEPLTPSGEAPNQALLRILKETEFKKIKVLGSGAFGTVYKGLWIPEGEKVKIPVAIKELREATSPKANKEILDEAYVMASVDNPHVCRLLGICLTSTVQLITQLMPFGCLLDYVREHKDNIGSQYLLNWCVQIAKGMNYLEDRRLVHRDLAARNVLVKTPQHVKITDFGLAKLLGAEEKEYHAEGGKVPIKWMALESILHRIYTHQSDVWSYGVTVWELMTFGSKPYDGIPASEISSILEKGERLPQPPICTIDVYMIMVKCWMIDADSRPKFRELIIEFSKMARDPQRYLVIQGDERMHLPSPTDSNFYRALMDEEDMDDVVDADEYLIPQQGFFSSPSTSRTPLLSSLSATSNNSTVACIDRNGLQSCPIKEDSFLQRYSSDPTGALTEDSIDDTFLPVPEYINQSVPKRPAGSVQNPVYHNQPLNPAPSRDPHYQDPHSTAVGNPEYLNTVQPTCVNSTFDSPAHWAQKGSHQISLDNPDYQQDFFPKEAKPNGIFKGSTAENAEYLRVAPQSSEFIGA

Take `COc1cc2c(Oc3ccc(NC(=O)C4(C(=O)Nc5ccc(F)cc5)CC4)cc3F)ccnc2cc1OCCCN1CCOCC1`: the inhibition in the series filed under Homo sapiens was under 50%.
As to `CN(C)C/C=C/C(=O)Nc1cc2c(Nc3ccc(F)c(Cl)c3)ncnc2cc1O[C@H]1CCOC1` [AFATINIB], the viability at 1 µM in the series on A549 [1] worked out at 72.6%; in the series on NCI-H1975 [5], 89.7%. Further, the Activity in the series with A549 [2] is on record as 9.36%; with A549 [3], 12.21%; in the series with A549 [4], 5.8%; in the series with NCI-H1975 [6], 2.21%; with NCI-H1975 [7] it was 6.17%; in the series with NCI-H1975 [8], 1.88%. In addition, the Activity was 0.19% with L02 [10]; 0.26% in the series on L02 [11]; 3.78% in the series with L02 [12]; 52.24% with A549 [13]; 36.86% with A549 [14]. Moreover, the viability at 24 h, 1 µM in series [9] is 95.8%. For the same compound, the hemolysis at 2 h, 64 ug/ml in series [15] was under 5%.
Take `COc1cc2ncnc(Oc3ccc(NC(=O)CCCc4ccccc4)cc3F)c2cc1NC(=O)CCC(C)C`: the half-maximal inhibitory concentration (IC50) in the series on A549 [16] is over 50 µM; in the series on NCI-H1975 [17], 13.7 µM; in the series on PC-9, 33.7 µM; in [18] it was over 10 µM; in series [19], over 10 µM; in series [20] it was 1.48 µM.
On to `CCCC(=O)Nc1cc2c(Oc3ccc(NC(=O)c4sc(-c5ccccc5)nc4C)cc3F)cccc2cc1OC`, for which the IC50 in the series on A549 [16] is 8.15 µM; in the series with NCI-H1975 [17], 5.1 µM; in the series on PC-9, over 50 µM; in series [18], over 10 µM; in [19], over 10 µM; in series [20], 0.0719 µM.
Regarding `COc1cc2ncnc(Oc3ccc(NC(=O)CCCc4ccc(F)cc4)cc3F)c2cc1NC(=O)CCC(C)C`, the half-maximal inhibitory concentration (IC50) was over 50 µM with A549 [16]; 12 µM in the series on NCI-H1975 [17]; over 50 µM in the series on PC-9; over 10 µM in series [18]; over 10 µM in [19]; 0.712 µM in series [20].
Consider `CCCC(=O)Nc1cc2c(Oc3ccc(NC(=O)n4c(=O)c(-c5ccccc5)c(C)n4C)cc3F)cccc2cc1OC`, for which the IC50 was 10.2 µM in the series with A549 [16]; over 50 µM with NCI-H1975 [17]; over 50 µM in the series on PC-9; 4.21 µM in series [18]; over 10 µM in series [19]; 0.00411 µM in series [20].
With `COc1cc2ncnc(Oc3ccc(NC(=O)CCCc4ccsc4)cc3F)c2cc1NC(=O)CCC(C)C`, the IC50 with A549 [16] is 13 µM; in the series on NCI-H1975 [17] it was over 50 µM; in the series with PC-9 it was over 50 µM; in series [18], over 10 µM; in series [19], over 10 µM; in series [20], 5.55 µM.
In the case of `CCCC(=O)Nc1cc2c(Oc3ccc(NC(=O)CCCc4ccc(OC)cc4)cc3F)ncnc2cc1OC`, the IC50 with A549 [16] was 7.74 µM; in the series on NCI-H1975 [17] it was 16.2 µM; with PC-9 it was over 50 µM; in series [18], 7.64 µM; in series [19], 8.96 µM; in series [20] it was 0.607 µM.
As to `CCC(=O)Nc1cc2c(Oc3ccc(NC(=O)CCCc4ccc(C)cc4)cc3F)ncnc2cc1OC`, the IC50 in the series on A549 [16] was 3.29 µM; in the series with NCI-H1975 [17] it was 19.1 µM; in the series on PC-9 it was 7.84 µM; in series [18], 8.43 µM; in series [19], over 10 µM; in [20], 1.18 µM.
As to `CCCC(=O)Nc1cc2c(Oc3ccc(NC(=O)CCCc4ccc(F)cc4)cc3F)ncnc2cc1OC`, the IC50 is over 50 µM in the series with A549 [16]; 12 µM with NCI-H1975 [17]; over 50 µM with PC-9; over 10 µM in series [18]; over 10 µM in series [19]; 0.477 µM in [20].
With `C/C=C/C(=O)Nc1cc2c(Oc3ccc(NC(=O)CCCc4ccc(F)cc4)cc3F)ncnc2cc1OC`, the IC50 was over 50 µM in the series with A549 [16]; 4.78 µM with NCI-H1975 [17]; 2.31 µM with PC-9; 4.54 µM in series [18]; 5.72 µM in [19]; 0.67 µM in [20].
Regarding `C=CC(=O)Nc1cc2c(Oc3ccc(NC(=O)NCCc4ccc(OC)c(OC)c4)cc3F)ncnc2cc1OC`, the IC50 with A549 [16] was 6.7 µM; in the series with NCI-H1975 [17], 11.4 µM; in the series with PC-9 it was 2.48 µM; in series [18], 2.35 µM; in series [19], 4.18 µM; in series [20] it was 0.114 µM.
With `C=CC(=O)Nc1cc2c(Oc3ccc(NC(=O)CCCc4ccc(F)cc4)cc3F)ncnc2cc1OC`, the IC50 in the series on A549 [16] turned out to be 2.07 µM; with NCI-H1975 [17], 8.21 µM; with PC-9 it was 4.56 µM; in [18], 0.782 µM; in series [19] it was 1.07 µM; in series [20] it was 0.355 µM.
Turning to `CCC(=O)Nc1cc2c(Oc3ccc(NC(=O)n4c(=O)c(-c5ccccc5)c(C)n4C)cc3F)cccc2cc1OC`, the IC50 was 8.42 µM in the series on A549 [16]; 22.2 µM in the series with NCI-H1975 [17]; 1.06 µM in the series with PC-9; over 10 µM in series [18]; over 10 µM in series [19]; 0.00102 µM in series [20].
`C/C=C/C(=O)Nc1cc2c(Oc3ccc(NC(=O)CCCc4ccc(OC)cc4)cc3F)ncnc2cc1OC`: the IC50 in the series with A549 [16] was 6.43 µM; with NCI-H1975 [17] it was over 50 µM; in the series on PC-9, 8.17 µM; in series [18], over 10 µM; in series [19] it was over 10 µM; in series [20], 0.493 µM.
Consider `CCC(=O)Nc1cc2c(Oc3ccc(NC(=O)c4c(-c5c(Cl)cccc5Cl)noc4C)cc3F)cccc2cc1OC`, for which the IC50 in the series with A549 [16] was 7.95 µM; in the series with NCI-H1975 [17], 4.91 µM; in the series on PC-9, 5.22 µM; in [18], over 10 µM; in series [19] it was over 10 µM; in [20], 3.48 µM.
On to `CCC(=O)Nc1cc2c(Oc3ccc(NC(=O)CCCc4ccccc4)cc3F)ncnc2cc1OC`, for which the 50% inhibitory concentration (IC50) in the series with A549 [16] came to 7.03 µM; in the series on NCI-H1975 [17] it was 3.98 µM; in the series on PC-9 it was 2.6 µM; in series [18], 1.44 µM; in [19], 2.27 µM; in series [20], 0.444 µM.
For the compound `C=CC(=O)Nc1cc2c(Oc3ccc(NC(=O)CCCc4ccc(C)cc4)cc3F)ncnc2cc1OC`, the IC50 worked out at 5.21 µM in the series on A549 [16]; 0.43 µM in the series with NCI-H1975 [17]; 7.67 µM in the series with PC-9; 1.79 µM in series [18]; 1.47 µM in series [19]; 0.394 µM in [20].
On to `CCC(=O)Nc1cc2c(Oc3ccc(NC(=O)CCCc4ccc(F)cc4)cc3F)ncnc2cc1OC`, for which the IC50 is 3.68 µM in the series with A549 [16]; 1.31 µM with NCI-H1975 [17]; 3.1 µM in the series with PC-9; 6.87 µM in [18]; 5.31 µM in series [19]; 0.354 µM in [20].

In general, inhibition refers to the relative decrease from the control value, in per cent. One may read the IC50 as the concentration that gives 50% inhibition.
